In PubChem BioAssay AID493130 (Broad Institute, 2011):
Results filed as inconclusive are left out. Activity calls are given as the source filed them.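 Rule for the calls: active = signal-lowering compounds whose fitted half-maximal concentration is at most ten times their highest tested dose; inconclusive = flat fit between -30 and -70%, or poor fit; inactive = flat within 30%, signal rising, or potency beyond limit.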

What follows are compounds tested against POS-1 (Caenorhabditis elegans) binding to mex-3 RNA (assay: C. elegans POS-1 RNA interaction disruptors – biochemical, fluorescence polarization, cherry-picked samples, set 2, counter-screen for MEX-5 RNA-binding inhibitor project, dose response (AID 493130;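 note: POS-1 as maltose binding protein fusion made in E. coli with FITC RNA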)). Conditions: POS-1/mex-3 RNA fluorescence polarization, 1 h.

| Structure (SMILES) | AC50 |
| --- | --- |
| O=C(Nc1nc2c(s1)CN(Cc1ccccc1)CC2)c1cccc(S(=O)(=O)N2CCc3ccccc32)c1 | 7.79 µM |
| CC(=O)Nc1ccc(N2C(=O)c3cccc4c(O)ccc(c34)C2=O)cc1 | 1.41 µM |
| NS(=O)(=O)c1ccc(N=Nc2c(=O)[nH]n3c(=O)c4c([nH]c23)CCCC4)cc1 | 0.251 µM |
| CCCCCCc1cc2cc(C(=O)NC)c(=N)oc2cc1O | 1.62 µM |
| Cc1ccc(-c2cc(C(=O)Nc3ccc(S(=O)(=O)Nc4ncccn4)cc3)[nH]n2)c(O)c1C | 5.29 µM |
| CCCC1=NN2C(=N)/C(=C\c3ccc(SCc4ccco4)o3)C(=O)N=C2S1 | 0.699 µM |
| Cc1cc(=O)oc(C)c1C(=O)Nc1ccc2ncccc2c1 | 8.33 µM |
| CN1CC=C2C(C#N)=C(N)C(C#N)(C#N)[C@H](c3ccoc3)[C@H]2C1 | 5.4 µM |
| Cc1cccc(N2C(=O)NC(=O)/C(=C/c3cc4c(cc3[N+](=O)[O-])OCO4)C2=O)c1 | 2.94 µM |
| Cc1ccc(N2C(=O)NC(=O)/C(=C\c3ccc([N+](=O)[O-])o3)C2=O)cc1 | 7.36 µM |
| O=C1NC2=C(C(=O)CCC2)C(c2ccccc2[N+](=O)[O-])N1 (configuration not stated) | > 10 µM (inactive) |
| O=c1[nH]c(/C=C/c2cccc3ccccc23)nc2ccccc12 | > 10 µM (inactive) |
| COCC1CCN(Cc2c(C(=O)N3CCc4ccccc4C3)nc3ccc(Cl)cn23)C1 (configuration not stated) | > 10 µM (inactive) |
| O=C(O)c1ccccc1NS(=O)(=O)c1cccc(-n2sc3ccccc3c2=O)c1 | 8.72 µM |
| CN1CC=C2C(C#N)=C(N)C(C#N)(C#N)C(Cc3ccccc3)C2C1 (configuration not stated) | 6.58 µM |
| COc1ccc(N=Nc2nc3ccc(Br)cc3n2C)cc1 | 2.16 µM |

Same assay, conditions: POS-1/mex-3 RNA fluorescence polarization, 1 h; at 10 µM (top of the series)

| Structure (SMILES) | activity change, negative = inhibition |
| --- | --- |
| Cc1ccc(S(=O)(=O)c2cc3c(=O)n4cccc(C)c4nc3n(C3CCCCC3)c2=N)cc1 | inactive |
| O=c1[nH]c(=S)n(-c2ccc(Cl)cc2)c(O)c1C=Nc1ccc(N2CCOCC2)cc1 | inactive |
| Oc1ccc(C2C=C(c3ccc(F)cc3)Nc3ncnn32)cc1 (configuration not stated) | inactive |
| CCn1c(O)c(N=NC(=O)CNC(=O)/C=C/c2ccco2)c2ccccc21 | inactive |
| COc1ccccc1CN1CC(C(=O)NCCN(C)CCc2ccccc2)CCC1=O (configuration not stated) | inactive |
| Cc1cc(=O)[nH]c(SCc2nc3ccc([N+](=O)[O-])cc3[nH]2)n1 | inactive |
| CNC(=O)c1c(NC(=O)c2ccc(S(=O)(=O)N(C)c3ccccc3)cc2)sc2c1CCN(C(C)C)C2 | inactive |
| O=C(N/N=C/c1ccncc1)c1cc([N+](=O)[O-])cc([N+](=O)[O-])c1O | inactive |
| CN1CCc2nc3sc(C(=O)NC(C)(C)C)c(N)c3cc2C1 | inactive |
| CCc1ccc(/C=C2/C(=O)N(CC)C(=S)N2C)s1 | inactive |
| COc1ccc(C2c3sc(=O)[nH]c3SCC2C(N)=O)cc1 (configuration not stated) | inactive |
| O=C1OC2(CCCC2)OC(=O)C1=Cc1c[nH]c2ccccc12 | inactive |
| COc1cccc(/C=N/NC(=O)N/N=C/c2cccc(OC)c2O)c1O | inactive |
| COc1ccc(/C=N/Nc2nc(=O)[nH]nc2C)cc1[N+](=O)[O-] | inactive |
| CCOC(=O)C1(C)/C(=N/Nc2cccc(Cl)c2)C(=O)C(=O)N1c1ccccc1 (configuration not stated) | inactive |
| O=C(O)CCSc1nc2ccccc2n1Cc1ccccc1 | inactive |
| CC(=O)NN1C(=O)/C(=C/c2ccc(Br)o2)SC1=S | inactive |
| CN(C)C1C(=O)C(C(N)=O)=C(O)C2(O)C(=O)C3=C(O)c4c(O)cccc4C(C)(O)C3CC12 (configuration not stated) | inactive |
| COCC1CCN(Cc2c(C(=O)N3CCN(C4CCCCC4)CC3)nc3ccccn23)C1 (configuration not stated) | inactive |
| Cc1ccc(C(=O)/C=C/c2ccccc2[N+](=O)[O-])cc1 | inactive |
| CC(C)(C)OC(=O)NCCCC1=CC2=CC(=O)C(C)(O)C(=O)C2=CO1 (configuration not stated) | inactive |
| CN1/C(=C\C=C(/C#N)C(=O)Nc2ccccc2F)C(C)(C)c2ccccc21 | inactive |
| O=C1NC(=O)/C(=C/c2ccc(N3CCOCC3)o2)N1 | inactive |
| O=C(CCCN1C(=O)/C(=C/c2ccccc2Cl)SC1=S)NNC(=O)c1ccc(Cl)cc1 | inactive |
| COc1ccc(N=Nc2c(C)[nH][nH]c2=O)cc1 | inactive |
| CC(=O)Nc1ccc(/C=C/c2nc(-c3ccccc3O)n[nH]2)cc1 | inactive |

| Structure (SMILES) | activity change, negative = inhibition |
| --- | --- |
| Cc1ccc(-c2cc(C(=O)O)c3cc(Br)ccc3n2)o1 | inactive |
| CCCCN1C=CC(=C2C(=O)c3ccccc3C2=O)C=C1 | inactive |
| Nc1ccc(S(=O)(=O)NNC(=O)C(=O)NNc2ccccn2)cc1 | inactive |
| O=S(=O)(O)c1cc(O)c2c(O)c(N=Nc3cc(Cl)ccc3O)c(S(=O)(=O)O)cc2c1 | inactive |
| CCOC(=O)C1C(=O)C=C(/C=C/c2ccc(N(C)C)cc2)CC1c1ccccc1 (configuration not stated) | inactive |
| Oc1cccc(NC(=S)N=Nc2c(O)[nH]c3ccc(Br)cc23)c1 | inactive |
| Cc1c(C=O)c(Cl)n(C)c(=O)c1C#N | inactive |
| CN1C(=O)NC(c2ccccc2Cl)C2=C1CC(C)(C)CC2=O (configuration not stated) | inactive |
| COC(=O)c1cc2c(-c3ccccc3)cc3ccccn3c-2c1C(=O)OC | inactive |
| CCc1ccc(/C=C2\Oc3cc(OS(C)(=O)=O)ccc3C2=O)cc1 | inactive |
| O=C(N/N=C/c1c(O)n(Cc2ccco2)c(=O)[nH]c1=O)c1ccccc1 | inactive |
| CN1CCN(c2nc(-c3ccccc3)nc(-c3ccccc3)c2C#N)CC1 | inactive |
| O=C(O)c1cccc(NC2=C(Cl)C(=O)c3ccccc3C2=O)c1 | inactive |
| COc1ccccc1N1C(=O)C2C(C(=O)c3ccccc3)=NN(c3ccccc3OC)C2C1=O (configuration not stated) | inactive |
| CCOC(=O)Cc1csc(NC(=O)c2sc3nc4c(C)cc(C)cc4cc3c2N)n1 | inactive |
| O=S(=O)(Nc1ccc(O)c(NS(=O)(=O)c2ccccc2)c1)c1ccccc1 | inactive |
| O=[As](O)(O)c1ccc(N=Nc2ccc(O)cc2)cc1 | inactive |
| CN1C(=O)N(C)C(c2cccc([N+](=O)[O-])c2)C2=C1CCCC2=O (configuration not stated) | inactive |
| COc1cc2c(cc1OC)[C@@H](Cc1ccc(OCCC#N)cc1)N(C)CC2 | inactive |
| O=C1CS/C(=N\NC(=O)c2ccccc2)N1 | inactive |
| C=CCOc1ccc(C(c2c(C(=O)O)[nH]c3ccccc23)c2c(C(=O)O)[nH]c3ccccc23)cc1 | inactive |
| CC1=NN(C(N)=S)C(=O)C1N=Nc1cccc(Cl)c1C (configuration not stated) | inactive |
| COc1cccc(NC(=O)CSc2nc3ccccc3nc2N2CCOCC2)c1 | inactive |
| Nc1cc(C(=O)O)c(Oc2ccc(Cl)cc2Cl)cc1C(=O)O | inactive |
| COc1cc(/C=C/c2nc(-c3ccccc3O)n[nH]2)cc(OC)c1OC | inactive |
| COC(=O)c1ccc(N2NC(=O)/C(=C/c3ccc(-c4ccc(Cl)c(C(=O)O)c4)o3)C2=O)cc1 | inactive |

| Structure (SMILES) | activity change, negative = inhibition |
| --- | --- |
| Nc1nonc1C(=O)N/N=C/c1cc(Br)ccc1O | inactive |
| O=C(NC1CCSc2ccccc21)c1ccc([N+](=O)[O-])cc1 (configuration not stated) | inactive |
| C#CCOCCOCCOCCNc1nc(N2CCN(C(=O)[C@H]([C@@H](C)O)n3cc(CCCCN)nn3)CC2)nc(N2CCN(C(=O)[C@H](C)n3cc(CCCN=C(N)N)nn3)CC2)n1 | inactive |
| COc1ccc(-c2cn[nH]c2-c2ccc(O)cc2O)cc1OC | inactive |
| CCOc1nc(-c2ccccc2)c2cc(Br)ccc2n1 | inactive |
| Cc1cccc(/C=C(\C#N)C(=O)Nc2ccccn2)c1 | inactive |
| CN(C)CC(O)COc1ccc(C(C)(C)c2ccc(OCC(O)CN(C)C)cc2)cc1 (configuration not stated) | inactive |
| Cn1c(=O)c2c(nc(NN=C3CCCCC3)n2C)n(C)c1=O | inactive |
| COc1ccc(/C=C2\SC(=S)N(CCCC(=O)Nc3ccccn3)C2=O)cc1OC | inactive |
| Cc1nc2c3ccccc3nc(NNC(=O)CCC(=O)NC(C)C)n2n1 | inactive |
| O=C1OC(C(=O)O)Cc2ccccc21 (configuration not stated) | inactive |
| Nc1c(NCc2ccccc2)c(=O)[nH]c(=O)n1Cc1ccccc1 | inactive |
| COc1ccc(-c2csc(Nc3ccc(S(N)(=O)=O)cc3)n2)cc1OC | inactive |
| COc1ccc(NCc2n[nH]c(=O)c3ccccc23)cc1 | inactive |
| COc1ccc(CCn2c(=N)c(C(=O)NCC3CCCO3)cc3c(=O)n4ccccc4nc32)cc1 (configuration not stated) | inactive |
| COCCNC(=S)NNC(=O)c1cccs1 | inactive |
| O=C(N/N=C/c1oc(O)c2ccccc12)c1ccccc1O | inactive |
| COc1cccc(NCc2cc(=O)oc3cc(C)c(O)cc23)c1 | inactive |
| CC(=O)CCS(=O)(=O)c1ccc(Oc2ccc(S(=O)(=O)CCC(C)=O)cc2)cc1 | inactive |
| Cc1cc(/C=C2\C(=O)NC(=O)N(c3cccc(Br)c3)C2=O)c(C)n1C | inactive |
| CC(C)CN1CCN(Cc2cccc3ncccc23)CC1CCO (configuration not stated) | inactive |
| CN1CN(C)c2ccc([N+](=O)[O-])c3cccc1c23 | inactive |
| COc1cc(/C=C2/C(C)=C(C#N)c3nc(N)c(C#N)c(C)c32)ccc1OCC(=O)O | inactive |
| CCOC(=O)NC(=O)/C(C#N)=C\Nc1sccc1C(=O)OC | inactive |
